Data from patent publication US20240384268A1, “Oligonucleotides” (Hudson Institute of Medical Research, priority 2021, published 2024).
l = locked nucleic acid (LNA); d = 2'-deoxy (DNA)

Key:
STING = biological target: T1, STING (Homo sapiens, UniProt Q86WV6); experiment: STING agonist (GSK, DMXAA)-driven IP-10 in MG-63 cells and immortalised mouse BMDMs; format: cell-based; details: C2-Mut1 500 nM 6 h (GSK 100 nM, DMXAA 50 μg/ml); MOE/LNA ASOs 1 mM as printed (GSK, MG-63)
T1 construct: host or cells: MG-63 (human osteosarcoma)

cGAS [1] = biological target: T2, cGAS (Homo sapiens, UniProt Q8N884); experiment: ISD70-driven IP-10 production in MG-63 cells; format: cell-based; design: endogenous in cells
TLR3 = biological target: T3, TLR3 (Homo sapiens, UniProt O15455); experiment: pIC-driven IP-10 in MG-63 cells; format: cell-based; design: host or cells: MG-63 (human osteosarcoma); details: 1 mM ASO as printed, single preliminary experiment
T3 sequence (O15455 24-904): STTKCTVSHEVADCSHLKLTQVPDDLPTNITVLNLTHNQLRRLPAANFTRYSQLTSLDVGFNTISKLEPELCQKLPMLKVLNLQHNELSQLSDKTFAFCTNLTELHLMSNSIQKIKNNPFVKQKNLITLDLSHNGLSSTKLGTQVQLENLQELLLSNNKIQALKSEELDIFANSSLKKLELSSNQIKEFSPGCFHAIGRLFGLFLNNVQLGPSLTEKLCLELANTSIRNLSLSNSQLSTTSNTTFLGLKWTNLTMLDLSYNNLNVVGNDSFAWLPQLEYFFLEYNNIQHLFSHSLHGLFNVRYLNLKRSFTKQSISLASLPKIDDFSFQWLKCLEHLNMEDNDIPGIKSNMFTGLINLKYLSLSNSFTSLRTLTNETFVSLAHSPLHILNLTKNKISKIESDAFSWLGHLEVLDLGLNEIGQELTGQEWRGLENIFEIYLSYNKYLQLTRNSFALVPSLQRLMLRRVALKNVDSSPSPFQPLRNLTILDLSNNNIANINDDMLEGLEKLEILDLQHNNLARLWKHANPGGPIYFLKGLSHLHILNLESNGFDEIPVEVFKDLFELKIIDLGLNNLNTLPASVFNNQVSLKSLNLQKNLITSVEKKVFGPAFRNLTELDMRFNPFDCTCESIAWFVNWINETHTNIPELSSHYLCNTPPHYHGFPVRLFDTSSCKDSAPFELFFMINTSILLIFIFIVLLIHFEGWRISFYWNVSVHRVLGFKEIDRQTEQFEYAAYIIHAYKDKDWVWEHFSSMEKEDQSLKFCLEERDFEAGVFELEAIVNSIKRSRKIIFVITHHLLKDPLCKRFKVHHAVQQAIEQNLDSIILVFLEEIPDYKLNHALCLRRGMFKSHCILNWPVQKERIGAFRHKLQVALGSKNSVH
Protocol: FIG. 25: MG-63 were pre-treated for […] with […] indicated concentrations of ASOs (except for B3 and HPRT847Mut, used at 500 nM), prior to overnight transfection with ISD, stimulation with […] pIC or 100 nM GSK (Valentin et al., 2021). IP10 levels were measured and normalised to GSK only condition, after background correction. Data shown are from a single experiment in biological triplicate (+/−SEM).

cGAS [2] = biological target: T2, cGAS; experiment: ISD70-driven IP-10 (and IFN-β) production in THP-1 cells, ELISA; format: cell-based; design: endogenous in cells; host or cells: THP-1 (undifferentiated); details: THP-1
cGAS [3] = biological target: cGAS (Mus musculus, UniProt Q8C6L5); experiment: ISD-driven IP-10 production in immortalised mouse BMDMs; format: cell-based; design: endogenous in cells; host or cells: immortalised wild-type mouse bone marrow macrophages (iBMDMs); details: iBMDMs, 500 nM ASO
mouse cGAS = biological target: T4, mouse cGAS (Mus musculus, UniProt Q8C6L5); experiment: ISD45-driven ISRE-luciferase in mouse LL171 cells; format: cell-based; details: 2′OMe or PS oligos 50-600 nM, ISD45 2.5 μg/ml overnight
T4 construct: endogenous in cells; host or cells: LL171 (mouse L929 cells with ISRE-Luciferase)
Protocol: In such examples, inhibition of cGAS activity can be identified by observation of an overall decreased cGAS response of the cell population, or a lower proportion of cells having cGAS-positive activity as compared to positive control condition in which cells are treated with cGAS agonist in the absence of the oligonucleotide (or in the presence of an appropriate control inhibitory agent). In one example, THP-1 or HT-29 cells are transfected with ISD70 and incubated with an oligonucleotide. cGAS activity can then be determined by cytokine (e.g., IP-10 and/or IFNβ) expression (e.g., gene and/or protein expression) and/or secretion levels, such as by ELISA. A similar assay can be performed with LL171 cells transfected with ISD45. […] By way of example, cGAS enzymatic activity may be assessed in vitro using recombinant cGAS and then measuring activity thereof by way of a cGAMP ELISA.
For cGAS stimulations, cells were treated for indicated duration with ASOs, prior to transfection with ISD70 (human cells) or ISD45 (mouse cells) (the ASOs were not washed off prior to ISD transfection unless otherwise indicated). The cGAS ligands ISD45 (Stetson and Medzhitov, 2006) and ISD70 (also known as VACV-70 (Unterholzner et al., 2010)) (Table 1) were resuspended as follows: 5 1d of sense and 5 μl of antisense strands at 10 μg/μl were added to 90 μl PBS under sterile conditions, heated at 75° C. for 30 min, prior to letting cool down at room temperature and aliquoting (stock at 1 μg/1 l). The ISDs were transfected at a concentration of […] at a ratio of 1 μg:1 μl with Lipofectamine 2000 in Opti-MEM (Thermo Fisher Scientific). HEK-TLR3, HEK-TLR7 and […] were treated with indicated concentration of ASOs for 20-50 min, prior to stimulation with poly(I:C) (Invivogen), R848 (Invivogen), Motolimod (MedChemExpress) and the Class B CpG oligonucleotides ODN 2006 (synthesised by IDT and resuspended in RNase-free TE buffer [Table 1]), respectively. The TLR2/1 agonist PAM3CSK4 (Invivogen), the TLR4 agonist lipopolysaccharide (Invivogen), the Class B CpG oligonucleotides ODN 1826 (synthesised by IDT and resuspended in RNase-free TE buffer), the mouse Sting agonist DMXAA (Cayman) and the human STING agonist (compound #3 from (Raanjulu et al., 2018), referred to as GSK herein—kind gift from Cancer Therapeutics CRC, Australia) were used at indicated concentrations. Aspirin (Sigma—A2093) was resuspended in pure medium to 10 mM, filter sterilised and added to the cells at 2 mM final. All ASOs were synthesised by Integrated DNA Technologies (IDT), and resuspended in RNase-free TE buffer, pH 8.0 (Thermo Fisher Scientific). Cell viability was assessed by adding 1× fresh resazurin solution to the wells (10λ solution made up with 7 mg resazurin [Sigma—R7017] dissolved in 3.5 ml PBS, sterile filtered at […]) for 4 h, prior to reading at with a Fluostar OPTIMA (BMG LABTECH) plate-reader (fluorescence: Excitation 535 nm, Emission 590); wells with medium only and 1× resazurin were used as blanks.
Following transfection, the cells were collected from the 6-wells and aliquoted into 96-wells, just before ASO and overnight TLR stimulation (as above described).

HPRT = HPRT mRNA levels in SV40T hTERT fibroblasts, RT-qPCR; format: cell-based, human; details: 100 nM ASO transfected overnight
cGAS [4] = biological target: T2, cGAS; experiment: IFN-driven gene expression in BJ hTERT SV40T fibroblasts (constitutive cGAS activation), RT-qPCR; details: ASO transfected 20-100 nM overnight

T2 sequence (Q8N884 whole entry): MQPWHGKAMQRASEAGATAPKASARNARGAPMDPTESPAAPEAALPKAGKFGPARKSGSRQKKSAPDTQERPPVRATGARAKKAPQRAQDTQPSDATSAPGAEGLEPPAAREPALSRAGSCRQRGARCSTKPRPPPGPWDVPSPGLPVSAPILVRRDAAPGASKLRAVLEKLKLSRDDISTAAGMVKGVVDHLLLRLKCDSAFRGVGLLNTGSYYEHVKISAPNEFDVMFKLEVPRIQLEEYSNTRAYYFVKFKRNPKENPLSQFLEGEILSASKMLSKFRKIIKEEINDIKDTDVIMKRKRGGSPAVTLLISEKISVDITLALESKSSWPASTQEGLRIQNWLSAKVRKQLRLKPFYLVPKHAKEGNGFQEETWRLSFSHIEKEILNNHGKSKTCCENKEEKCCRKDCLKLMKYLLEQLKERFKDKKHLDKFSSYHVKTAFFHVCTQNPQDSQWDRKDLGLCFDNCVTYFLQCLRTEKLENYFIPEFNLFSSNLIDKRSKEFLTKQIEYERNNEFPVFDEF
cGAS (Mus musculus, UniProt Q8C6L5), sequence (Q8C6L5 whole entry): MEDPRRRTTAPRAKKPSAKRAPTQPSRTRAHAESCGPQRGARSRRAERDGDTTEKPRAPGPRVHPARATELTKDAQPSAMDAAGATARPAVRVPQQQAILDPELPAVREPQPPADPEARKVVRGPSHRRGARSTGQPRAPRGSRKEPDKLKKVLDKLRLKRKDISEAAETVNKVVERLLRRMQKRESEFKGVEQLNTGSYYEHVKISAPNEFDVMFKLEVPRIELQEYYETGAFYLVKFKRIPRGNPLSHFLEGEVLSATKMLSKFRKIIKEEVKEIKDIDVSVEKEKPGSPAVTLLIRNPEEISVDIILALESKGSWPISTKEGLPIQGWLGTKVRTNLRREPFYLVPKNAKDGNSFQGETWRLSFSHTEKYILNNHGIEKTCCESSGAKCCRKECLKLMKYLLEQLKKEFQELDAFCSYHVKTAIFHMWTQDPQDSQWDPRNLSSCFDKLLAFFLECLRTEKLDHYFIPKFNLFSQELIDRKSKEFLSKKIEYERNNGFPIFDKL
T1 sequence (Q86WV6 whole entry): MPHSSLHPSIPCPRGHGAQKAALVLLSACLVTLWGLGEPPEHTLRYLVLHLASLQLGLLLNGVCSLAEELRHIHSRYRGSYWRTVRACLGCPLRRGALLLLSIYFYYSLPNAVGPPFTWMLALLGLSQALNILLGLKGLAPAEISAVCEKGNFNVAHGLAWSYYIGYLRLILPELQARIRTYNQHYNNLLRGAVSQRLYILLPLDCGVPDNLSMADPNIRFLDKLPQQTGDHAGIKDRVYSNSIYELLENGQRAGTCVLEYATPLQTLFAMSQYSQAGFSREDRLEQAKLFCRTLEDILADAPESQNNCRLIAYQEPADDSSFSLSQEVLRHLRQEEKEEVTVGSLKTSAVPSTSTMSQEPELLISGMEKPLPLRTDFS
T4 sequence (Q8C6L5 whole entry): as the sequence (Q8C6L5 whole entry) above

inhibition of ISD sensing in MG-63, 2′OMe ASOs (in words) (cGAS [1]; C2-Mut1 500 nM 6 h, or ASO847 series ~30 min, ISD70 overnight)	inhibition of ISD70-driven IP-10 production (in words) (cGAS [2]; 2′OMe or PS oligos, 100-250 nM, pre-treatment as in figure legends, ISD70 2.5 μg/ml)	inhibition of constitutively expressed ISGs (IFIT1, IFIT2, IFI44; in words) (cGAS [4])	Substance	IP-10 production driven by STING synthetic agonists (in words) (STING)	IP-10 driven by ISD in MG-63, higher dose (in words) (cGAS [1]; 1 mM ASO as printed, single preliminary experiment (FIG. 25))	IP-10 after ISD in MG-63, MOE and LNA ASOs (in words) (cGAS [1]; indicated concentrations up to 500 nM, ~30 min, ISD overnight (FIG. 24))	IP-10 driven by TLR3 engagement with polyI:C in MG-63 (in words) (TLR3)	IC50 (cGAS [2]; ~30 min pre-treatment, ISD70 overnight (FIG. 27), read-out: IC50 (IP-10 after ISD70 transfection), MOE and LNA ASOs) [nM]	ISD-induced IP-10 in immortalised mouse BMDMs (in words) (cGAS [3]; ISD overnight)	IP-10 induced by the ASO transfected alone, no ISD (in words) (cGAS [3]; lipofectamine only (Mock))	inhibition of ISD45-driven ISRE-luciferase (in words) (mouse cGAS)	HPRT mRNA levels (in words) (HPRT)
–	–	–	+C*+G*+C*T*T*T*T*C*T*C*T*C*C*+G*+G*+T (CGCTTTTCTCTCCGGT; sugars from the 5' end l3 d10 l3, all phosphorothioate, methylation of C not given here) [A1-Mut]	not that driven by direct stimulation of STING	only reduced IP-10 driven by ISD	significantly reduced IP-10 levels	only reduced IP-10 driven by ISD	75	did not significantly potentiate IP-10 production	induced low level IP-10	–	–
much better inhibitor of cGAS	much better inhibitor of cGAS	as potent as C2-Mutl	mG*mG*mU* mA*mU*mA* mG*mG*A* C*T*C* C*A*G* A*T*G* mU*mU*mU* mC*mC [HPRT-2OMe-847-Mut1]	–	–	–	–	–	–	–	better inhibitor against mouse cGAS activation	still able to reduce HPRT levels
